Measured values: US9598446B2, “Amino compounds for treatment of complement mediated disorders” (priority 2014, dated 2017)

Each molecule was assayed against Human factor D (Homo sapiens (Human), UniProt P00746) (assay: Human Factor D Assay). Conditions: not given.
Human factor D, sequence (P00746 26-253): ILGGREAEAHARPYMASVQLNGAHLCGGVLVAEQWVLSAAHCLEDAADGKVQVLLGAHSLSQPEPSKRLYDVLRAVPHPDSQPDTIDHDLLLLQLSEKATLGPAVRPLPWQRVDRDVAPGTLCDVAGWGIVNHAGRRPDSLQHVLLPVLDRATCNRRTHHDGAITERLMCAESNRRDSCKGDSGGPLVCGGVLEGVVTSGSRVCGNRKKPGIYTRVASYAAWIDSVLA
Type: biochemical
Work on `CC(=O)c1cn(CC(=O)N2C[C@H](F)C[C@H]2C(=O)NCc2cccc(Cl)c2F)c2cc(N(CC(=O)N3C[C@H](F)C[C@H]3C(=O)NCc3cccc(Cl)c3F)S(C)(=O)=O)ccc12` [Compound 1, (2S,4R)-1-(2-(N-(3-acetyl-1-(2-((2S,4R)-2-(3-chloro-2-fluorobenzyl-carbamoyl)-4-fluoropyrrolidin-1-yl)-2-oxoethyl)-1H-indol-6-yl)methylsulfonamido)acetyl)-N-(3-chloro-2-fluorobenzyl)-4-fluoropyrrolidine-2-carboxamide] yielded an IC50 of 1 to 10 µM. Work on `CC(=O)c1cn(CC(=O)N2C[C@H](F)C[C@H]2C(=O)NCc2nc3ccccc3s2)c2ccc(Nc3cncnc3)cc12` [Compound 16, (2S,4R)-1-(2-(3-acetyl-5-(pyrimidin-5-ylamino)-1H-indol-yl)acetyl)-N-(benzo[d]thiazol-2-ylmethyl)-4-fluoropyrrolidine-2-carboxamide] yielded an IC50 of 1 to 10 µM. Molecule `CNC(=O)[C@@H]1C[C@@H](F)CN1C(=O)Cn1cc(C(C)=O)c2cc(Nc3cncnc3)ccc21` [Compound 20, (2S,4R)-1-(2-(3-acetyl-5-(pyrimidin-5-ylamino)-1H-indol-1-yl)acetyl)-4-fluoro-N-methylpyrrolidine-2-carboxamide] has an IC50 of 1 to 10 µM.

Same assay, conditions: human factor D 80 nM, substrate Z-L-Lys-SBz1 and DTNB 100 μM each, pH 7.5; read-out: IC50
For `CC(=O)c1cn(CC(=O)N2C[C@H](F)C[C@H]2C(=O)NCc2cccc(Cl)c2F)c2cc(NS(=O)(=O)C(F)(F)F)ccc12` [Compound 2, (2S,4R)-1-(2-(3-acetyl-6-(trifluoromethylsulfon-amido)-1H-indol-1-yl)acetyl)-N-(3-chloro-2-fluorobenzyl)-4-fluoropyrrolidine-2-carboxamide], the IC50 was < 1 µM. `CC(=O)c1cn(CC(=O)N2C[C@H](F)C[C@H]2C(=O)Nc2cccc(-c3ccccc3Cl)c2F)c2ccc(Nc3cncnc3)cc12` [Compound 3, (2S,4R)-1-(2-(3-acetyl-5-(pyrimidin-5-ylamino)-1H-indol-1-yl)acetyl)-N-(2′-chloro-2-fluorobiphenyl-3-yl)-4-fluoropyrrolidine-2-carboxamide] was tested, and the IC50 was < 1 µM. `CC(=O)c1cn(CC(=O)N2C[C@H](F)C[C@H]2C(=O)Nc2cccc(Br)n2)c2ccc(Nc3cncnc3)cc12` [Compound 4, (2S,4R)-1-(2-(3-acetyl-5-(pyrimidin-5-ylamino)-1H-indol-1-yl)acetyl)-N-(6-bromopyridin-2-yl)-4-fluoropyrrolidine-2-carboxamide] was tested, and the IC50 was < 1 µM. In the case of `CC(=O)c1cn(CC(=O)N2C[C@H](F)C[C@H]2C(=O)Nc2cccc(Cl)n2)c2ccc(Nc3cncnc3)cc12` [Compound 6, (2S,4R)-1-(2-(3-acetyl-5-(pyrimidin-5-ylamino)-1H-indol-1-yl)acetyl)-N-(6-chloropyridin-2-yl)-4-fluoropyrrolidine-2-carboxamide], the IC50 is reported as < 1 µM. For `CC(=O)c1cn(CC(=O)N2C[C@H](F)C[C@H]2C(=O)N[C@H](CO)c2cccc(Cl)c2F)c2ccc(Nc3cncnc3)cc12` [Compound 7, (2S,4R)-1-(2-(3-acetyl-5-(pyrimidin-5-ylamino)-1H-indol-1-yl)acetyl)-N-((S)-1-(3-chloro-2-fluorophenyl)-2-hydroxyethyl)-4-fluoropyrrolidine-2-carboxamide], the IC50 was < 1 µM. In the case of `CC(=O)c1cn(CC(=O)N2C[C@H](F)C[C@H]2C(=O)N[C@@H](CO)c2cccc(Cl)c2F)c2ccc(Nc3cncnc3)cc12` [Compound 8, (2S,4R)-1-(2-(3-acetyl-5-(pyrimidin-5-ylamino)-1H-indol-1-yl)acetyl)-N-((R)-1-(3-chloro-2-fluorophenyl)-2-hydroxyethyl)-4-fluoropyrrolidine-2-carboxamide], the IC50 is reported as < 1 µM. `NC(=O)c1nn(CC(=O)N2C[C@H](F)C[C@H]2C(=O)Nc2cccc(-c3ccccc3Cl)c2F)c2ccc(Nc3cccnn3)cc12` [Compound 9, 1-(2-((2S,4R)-2-(2′-chloro-2-fluorobiphenyl-3-ylcarbamoyl)-4-fluoropyrrolidin-1-yl)-2-oxoethyl)-5-(pyridazin-3-ylamino)-1H-indazole-3-carboxamide] was tested, and the IC50 was < 1 µM. With `NC(=O)c1nn(CC(=O)N2C[C@H](F)C[C@H]2C(=O)Nc2cccc(-c3ccccc3Cl)c2F)c2ccc(Nc3cncnc3)cc12` [Compound 10, 1-(2-((2S,4R)-2-(2′-chloro-2-fluorobiphenyl-3-ylcarbamoyl)-4-fluoropyrrolidin-1-yl)-2-oxoethyl)-5-(pyrimidin-5-ylamino)-1H-indazole-3-carboxamide] the IC50 was < 1 µM. For `NC(=O)c1nn(CC(=O)N2C[C@H](F)C[C@H]2C(=O)Nc2cccc(Cl)n2)c2ccc(Nc3cccnn3)cc12` [Compound 11, 1-(2-((2S,4R)-2-(6-chloropyridin-2-ylcarbamoyl)-4-fluoropyrrolidin-1-yl)-2-oxoethyl)-5-(pyridazin-3-ylamino)-1H-indazole-3-carboxamide], the IC50 was < 1 µM. In the case of `NC(=O)c1nn(CC(=O)N2C[C@H](F)C[C@H]2C(=O)Nc2cccc(Cl)n2)c2ccc(Nc3cncnc3)cc12` [Compound 12, 1-(2-((2S,4R)-2-(6-chloropyridin-2-ylcarbamoyl)-4-fluoropyrrolidin-1-yl)-2-oxoethyl)-5-(pyrimidin-5-ylamino)-1H-indazole-3-carboxamide], the IC50 is reported as < 1 µM. For `N#Cc1cnc(Nc2ccc3c(c2)c(C(N)=O)nn3CC(=O)N2C[C@H](F)C[C@H]2C(=O)Nc2cccc(-c3ccccc3Cl)c2F)nc1` [Compound 13, 1-(2-((2S,4R)-2-(2′-chloro-2-fluorobiphenyl-3-ylcarbamoyl)-4-fluoropyrrolidin-1-yl)-2-oxoethyl)-5-(5-cyanopyrimidin-2-ylamino)-1H-indazole-3-carboxamide], the IC50 was < 1 µM. With `NC(=O)c1nn(CC(=O)N2C[C@H](F)C[C@H]2C(=O)Nc2cccc(-c3ccccc3Cl)c2F)c2ccc(Nc3cnc(C(F)(F)F)nc3)cc12` [Compound 14, 1-(2-((2S,4R)-2-(2′-chloro-2-fluorobiphenyl-3-ylcarbamoyl)-4-fluoropyrrolidin-1-yl)-2-oxoethyl)-5-(2-(trifluoromethyl)pyrimidin-5-ylamino)-1H-indazole-3-carboxamide] the IC50 was < 1 µM. `CC(=O)c1cn(CC(=O)N2C[C@H](F)C[C@H]2C(=O)NCc2ccccn2)c2ccc(Nc3cncnc3)cc12` [Compound 17, (2S,4R)-1-(2-(3-acetyl-5-(pyrimidin-5-ylamino)-1H-indol-1-yl)acetyl)-4-fluoro-N-(pyridin-2-ylmethyl)pyrrolidine-2-carboxamide] was tested, and the IC50 was < 1 µM. For `CC(=O)c1cn(CC(=O)N2C[C@H](F)C[C@H]2C(=O)NCc2cc(F)cc(Cl)c2)c2ccc(Nc3cncnc3)cc12` [Compound 18, (2S,4R)-1-(2-(3-acetyl-5-(pyrimidin-5-ylamino)-1H-indol-1-yl)acetyl)-N-(3-chloro-5-fluorobenzyl)-4-fluoropyrrolidine-2-carboxamide], the IC50 was < 1 µM. For `CC(=O)c1cn(CC(=O)N2C[C@H](F)C[C@H]2C(=O)NCc2cccc(Cl)c2)c2ccc(Nc3cncnc3)cc12` [Compound 19, (2S,4R)-1-(2-(3-acetyl-5-(pyrimidin-5-ylamino)-1H-indol-1-yl)acetyl)-N-(3-chlorobenzyl)-4-fluoropyrrolidine-2-carboxamide], the IC50 was < 1 µM. In the case of `CC(=O)c1cn(CC(=O)N2C[C@H](F)C[C@H]2C(=O)Nc2cncc(Br)c2)c2ccc(Nc3cncnc3)cc12` [Compound 21, (2S,4R)-1-(2-(3-acetyl-5-(pyrimidin-5-ylamino)-1H-indol-1-yl)acetyl)-N-(5-bromopyridin-3-yl)-4-fluoropyrrolidine-2-carboxamide], the IC50 is reported as < 1 µM.
